Laboratory results as given in the NIST ThermoML archive (doi:10.1016/j.jct.2004.09.007).

Experiment: molar heat capacity at constant pressure; xn = mol fraction of the nth substance listed
Details: 101.3 kPa, Liquid, Large sample (1 g) DSC

CC(O)CCO (stereo not drawn) [1,3-butanediol] + CCCCO
molar heat capacity at constant pressure [J/K/mol]
Details	x1 = 0.189	x1 = 0.2983	x1 = 0.436	x1 = 0.5902	x1 = 0.7056	x1 = 0.8961	x1 = 1
285.15 K	178.21	183.56	189.77	196.24	200.97	210.06	211.74
285.65 K	178.59	183.85	190.08	196.61	201.4	208.67	212.17
288.15 K	179.92	185.21	191.37	198	202.79	210.1	213.57
290.65 K	181.38	186.6	192.85	199.46	204.22	211.53	215.06
293.15 K	182.92	188.08	194.38	200.87	205.67	213	216.58
295.65 K	184.43	189.64	195.81	202.4	207.15	214.51	218.04
298.15 K	186.01	191.11	197.31	203.91	208.58	216.08	219.62
300.65 K	187.6	192.65	198.88	205.47	210.16	217.6	221.14
303.15 K	189.31	194.35	200.51	207.08	211.81	219.24	222.8
305.65 K	191.04	195.99	202.12	208.6	213.36	220.73	224.37
308.15 K	192.78	197.71	203.81	210.26	215.04	222.49	226.07
310.65 K	194.41	199.34	205.42	211.86	216.58	224.04	227.65
313.15 K	196.3	201.02	207.06	213.43	218.21	225.64	229.24
315.65 K	198.07	202.81	208.71	215.01	219.75	227.18	230.82
318.15 K	199.98	204.63	210.53	216.77	221.57	228.97	232.6
320.65 K	201.89	206.47	212.31	218.48	223.19	230.61	234.14
323.15 K	203.75	208.15	214.02	220.21	224.86	232.26	235.83
325.65 K	205.57	210.02	215.77	221.9	226.54	233.95	237.52
328.15 K	207.42	211.77	217.34	223.44	228.18	235.52	239.08
330.65 K	209.47	213.61	219.1	225.17	229.9	237.35	240.59
333.15 K	211.36	215.41	220.86	226.84	231.42	238.77	242.28
335.65 K	213.23	217.15	222.54	228.47	232.95	240.35	243.86
338.15 K	215.01	218.85	224.14	229.97	234.44	241.71	245.11
340.65 K	217.62	220.95	226.11	231.92	236.35	243.67	247.19
343.15 K	219.25	222.78	227.81	233.46	237.95	245.19	248.62
345.65 K	221.09	224.51	229.58	235.21	239.85	246.7	250.13
348.15 K	223.12	226.46	231.31	236.83	241.5	248.27	251.66
350.65 K	224.98	228.29	232.97	238.43	242.73	249.77	253.24
353.15 K	227.13	230.3	234.85	240.2	244.5	251.52	254.86
